From patent publication US7553966B2, “Glucocorticoid mimetics, methods of making them, pharmaceutical compositions, and uses thereof” (Boehringer Ingelheim Pharmaceuticals, Inc., priority 2002, dated 2009)

molecular target: T1, human glucocorticoid receptor (GR) complex (Homo sapiens, UniProt P04150); assay: Glucocorticoid Receptor Competitive Binding Assay (fluorescence polarization, TAMRA-labeled dexamethasone probe); conditions: qualitative statement; competition with TAMRA-labeled dexamethasone
T1 construct: made in house; host or cells: insect expression system (baculovirus lysate)
T1 sequence (P04150 1-777): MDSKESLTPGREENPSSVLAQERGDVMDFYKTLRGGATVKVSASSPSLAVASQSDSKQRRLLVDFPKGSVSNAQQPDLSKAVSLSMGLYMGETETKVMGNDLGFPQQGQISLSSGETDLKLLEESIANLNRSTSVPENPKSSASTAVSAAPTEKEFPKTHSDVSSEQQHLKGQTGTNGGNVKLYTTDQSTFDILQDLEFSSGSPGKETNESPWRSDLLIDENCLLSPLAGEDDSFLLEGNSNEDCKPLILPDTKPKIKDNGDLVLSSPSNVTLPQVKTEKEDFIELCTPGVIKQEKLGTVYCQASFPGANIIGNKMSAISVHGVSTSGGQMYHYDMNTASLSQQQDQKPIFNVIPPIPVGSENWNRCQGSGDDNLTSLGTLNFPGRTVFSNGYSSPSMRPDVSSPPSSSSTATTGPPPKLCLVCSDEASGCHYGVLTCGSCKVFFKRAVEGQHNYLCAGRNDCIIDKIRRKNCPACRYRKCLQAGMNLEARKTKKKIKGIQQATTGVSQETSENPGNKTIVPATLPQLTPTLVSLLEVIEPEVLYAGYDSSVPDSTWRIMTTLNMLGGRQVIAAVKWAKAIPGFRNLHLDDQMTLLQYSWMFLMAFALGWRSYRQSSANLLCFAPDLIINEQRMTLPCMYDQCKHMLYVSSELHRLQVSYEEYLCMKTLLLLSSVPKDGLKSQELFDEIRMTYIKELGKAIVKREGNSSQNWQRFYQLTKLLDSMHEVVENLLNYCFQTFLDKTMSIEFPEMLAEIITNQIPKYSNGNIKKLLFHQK
Description: Compounds of the invention were evaluated for binding to the steroid receptor by a fluorescence polarization competitive binding assay.
A. Glucocorticoid Receptor Competitive Binding Assay
Step 1. Characterization of the Fluorescent Probe
The wavelengths for maximum excitation and emission of the fluorescent probe should first be measured. An example of such a probe is rhodamine (TAMRA)-labeled dexamethasone.
The affinity of the probe for the steroid receptor was then determined in a titration experiment. The fluorescence polarization value of the probe in assay buffer was measured on an SLM-8100 fluorometer using the excitation and emission maximum values described above. Aliquots of expression vector lysate were added and fluorescence polarization was measured after each addition until no further change in polarization value was observed. Non-linear least squares regression analysis was used to calculate the dissociation constant of the probe from the polarization values obtained for lysate binding to the probe.
Step 2. Screening for Inhibitors of Probe Binding
This assay uses fluorescence polarization (FP) to quantitate the ability of test compounds to compete with tetramethyl rhodamine (TAMRA)-labeled dexamethasone for binding to a human glucocorticoid receptor (GR) complex prepared from an insect expression system. The assay buffer was: 10 mM TES, 50 mM KCl, 20 mM Na2MoO4. 2H2O, 1.5 mM EDTA, 0.04% w/v CHAPS, 10% v/v glycerol, 1 mM dithiothreitol, pH 7.4. Test compounds were dissolved to 1 mM in neat DMSO and then further diluted to 10× assay concentration in assay buffer supplemented with 10% v/v DMSO. Test compounds were serially diluted at 10× assay concentrations in 10% DMSO-containing buffer in 96-well polypropylene plates. […] Positive controls were reaction mixtures containing no test compound; negative controls (blanks) were reaction mixtures containing 0.7 μM to 2 μM dexamethasone. […] IC50 values were determined by iterative non-linear curve fitting of the FP signal data to a 4-parameter logistic equation.

| Compound | activity in the GR binding assay |
| --- | --- |
| COc1ccc(F)cc1C(C)(C)CC(O)(Cc1cc2ccccc2[nH]1)CC1CC1 (stereo not shown) [1-Cyclopropyl-4-(5-fluoro-2-methoxyphenyl)-2-(indol-2-ylmethyl)-4-methylpentan-2-ol] | potent activity |
| CC(C)(CC(O)(Cn1cc(C#N)c2ccccc21)C(F)(F)F)c1cccc2c1OCC2 (stereo not shown) [1-[4-(2,3-Dihydrobenzofuran-7-yl)-2-hydroxy-4-methyl-2-trifluoromethylpentyl]-1H-indole-3-carbonitrile] | potent activity |
| COc1ccc(F)cc1C(C)(C)CC(O)(Cn1cc(C#N)c2ccccc21)C(F)(F)F (stereo not shown) [1-[4-(5-Fluoro-2-methoxyphenyl)-2-hydroxy-4-methyl-2-trifluoromethylpentyl]-1H-indole-3-carbonitrile] | potent activity |
| COc1ccc(F)cc1C(C)(C)CC(O)(Cc1nc2ccccc2[nH]1)C(F)(F)F (stereo not shown) [2-(1H-Benzimidazol-2-ylmethyl)-1,1,1-trifluoro-4-(5-fluoro-2-methoxyphenyl)-4-methylpentan-2-ol] | potent activity |
| COc1ccc(F)cc1C(C)(C)CC(O)(Cn1cc(C)nc1-c1ccccc1)C(F)(F)F (stereo not shown) [2-(2-Phenyl-4-methylimidazol-1-ylmethyl)-1,1,1-trifluoro-4-(5-fluoro-2-methoxyphenyl)-4-methylpentan-2-ol] | potent activity |
| COc1ccc(F)cc1C(C)(C)CC(O)(Cn1ccnc1-c1ccccc1)C(F)(F)F (stereo not shown) [2-(2-Phenylimidazol-1-ylmethyl)-1,1,1-trifluoro-4-(5-fluoro-2-methoxyphenyl)-4-methylpentan-2-ol] | potent activity |
| COc1ccc(F)cc1C(C)(C)CC(O)(Cc1nc2cc(C)cc(C)c2[nH]1)C(F)(F)F (stereo not shown) [2-(5,7-Dimethyl-1H-benzoimidazol-2-ylmethyl)-1,1,1-trifluoro-4-(5-fluoro-2-methoxyphenyl)-4-methylpentan-2-ol] | potent activity |
| COc1ccc(F)cc1C(C)(C)CC(O)(Cc1nc2ccc(F)c(F)c2[nH]1)C(F)(F)F (stereo not shown) [2-(6,7-Difluoro-1H-benzoimidazol-2-ylmethyl)-1,1,1-trifluoro-4-(5-fluoro-2-methoxyphenyl)-4-methylpentan-2-ol] | potent activity |
| CCc1cccc(C(C)(C)CC(O)(Cc2cc3ccccc3[nH]2)C(F)(F)F)c1O (stereo not shown) [2-Ethyl-6-[4,4,4-trifluoro-3-hydroxy-3-(1H-indol-2-ylmethyl)-1,1-dimethylbutyl]phenol] | potent activity |
| COc1cccc(C(C)(C)CC(O)(Cc2cc3cc(C#N)ccc3[nH]2)C(F)(F)F)c1 (stereo not shown) [2-[2-Hydroxy-4-(3-methoxyphenyl)-4-methyl-2-trifluoromethylpentyl]-1H-indole-5-carbonitrile] | potent activity |
| CC(C)(CC(O)(Cc1cc(Cl)nc(Cl)c1)C(F)(F)F)c1cc(F)ccc1O (stereo not shown) [2-[3-(2,6-Dichloropyridin-4-ylmethyl)-4,4,4-trifluoro-3-hydroxy-1,1-dimethylbutyl]-4-fluorophenol] | potent activity |
| CC(C)(CC(O)(Cc1cc2cc(C#N)ccc2[nH]1)C(F)(F)F)c1cccc2c1OCC2 (stereo not shown) [2-[4-(2,3-Dihydrobenzofuran-7-yl)-2-hydroxy-4-methyl-2-trifluoromethylpentyl]-1H-indole-5-carbonitrile] | potent activity |
| CC(C)(CC(O)(Cc1cc2cc(C#N)ccc2[nH]1)C(F)(F)F)c1cccc(F)c1 (stereo not shown) [2-[4-(3-Fluorophenyl)-2-hydroxy-4-methyl-2-trifluoromethylpentyl]-1H-indole-5-carbonitrile] | potent activity |
| COC(=O)c1ccc2[nH]c(CC(O)(CC(C)(C)c3ccc(F)cc3OC)C(F)(F)F)cc2c1 (stereo not shown) [2-[4-(4-Fluoro-2-methoxyphenyl)-2-hydroxy-4-methyl-2-trifluoromethylpentyl]-1H-indole-5-carboxylic acid methyl ester] | potent activity |
| COC(=O)c1ccc2[nH]c(CC(O)(CC(C)(C)c3cc(Br)ccc3OC)C(F)(F)F)cc2c1 (stereo not shown) [2-[4-(5-Bromo-2-methoxyphenyl)-2-hydroxy-4-methyl-2-trifluoromethylpentyl]-1H-indole-5-carboxylic acid methyl ester] | potent activity |
| COc1ccc(Br)cc1C(C)(C)CC(O)(Cc1cc2c(C)cc(C#N)cc2[nH]1)C(F)(F)F (stereo not shown) [2-[4-(5-Bromo-2-methoxyphenyl)-2-hydroxy-4-methyl-2-trifluoromethylpentyl]-4-methyl-1H-indole-6-carbonitrile] | potent activity |
| COC(=O)c1ccc2[nH]c(CC(O)(CC(C)(C)c3cc(F)ccc3OC)C(F)(F)F)cc2c1 (stereo not shown) [2-[4-(5-Fluoro-2-methoxyphenyl)-2-hydroxy-4-methyl-2-trifluoromethylpentyl]-1H-indole-5-carboxylic acid methyl ester] | potent activity |

The next lines start with the values.

| activity in the GR binding assay | Compound |
| --- | --- |
| potent activity | CC(C)(CC(O)(Cc1[nH]c2ccccc2c1C#N)C(F)(F)F)c1ccccc1 (stereo not shown) [2-(2-Hydroxy-4-methyl-4-phenyl-2-trifluoromethylpentyl)-1H-indole-3-carbonitrile] |
| potent activity | CC(C)(CC(O)(Cc1ccnc2ccccc12)C(F)(F)F)c1ccc2ccccc2c1O (stereo not shown) [2-(4,4,4-Trifluoro-3-hydroxy-1,1-dimethyl-3-quinolin-4-ylmethylbutyl)naphthalen-1-ol] |
| potent activity | CCc1cccc(C(C)(C)CC(O)(Cc2ccnc3ccccc23)C(F)(F)F)c1O (stereo not shown) [2-Ethyl-6-(4,4,4-trifluoro-3-hydroxy-1,1-dimethyl-3-quinolin-4-ylmethylbutyl)phenol] |
| potent activity | CC(C)(CC(O)(Cc1[nH]c2ccccc2c1C#N)C(F)(F)F)c1cccc(F)c1 (stereo not shown) [2-[4-(3-Fluorophenyl)-2-hydroxy-4-methyl-2-trifluoromethylpentyl]-1H-indole-3-carbonitrile] |
| potent activity | CC(C)(CC(O)(Cc1[nH]c2ccccc2c1C#N)C(F)(F)F)c1ccc(F)cc1 (stereo not shown) [2-[4-(4-Fluorophenyl)-2-hydroxy-4-methyl-2-trifluoromethylpentyl]-1H-indole-3-carbonitrile] |
| potent activity | CC(C)(CC(O)(Cc1ccnc2ccccc12)C(F)(F)F)c1cccc(O)c1 (stereo not shown) [3-(4,4,4-Trifluoro-3-hydroxy-1,1-dimethyl-3-quinolin-4-ylmethylbutyl)phenol] |
| potent activity | CC(C)(CC(O)(Cc1cc2ccccc2[nH]1)C(F)(F)F)c1cccc(O)c1 (stereo not shown) [3-[4,4,4-Trifluoro-3-hydroxy-3-(1H-indol-2-ylmethyl)-1,1-dimethylbutyl]phenol] |
| potent activity | CC(C)(CC(O)(Cc1cc2ccccc2[nH]1)C(F)(F)F)c1ccc2c(c1)CCO2 (stereo not shown) [4-(2,3-Dihydrobenzofuran-5-yl)-1,1,1-trifluoro-2-(1H-indol-2-ylmethyl)-4-methylpentan-2-ol] |
| potent activity | CC(C)(CC(O)(Cc1ccnc2ccccc12)C(F)(F)F)c1ccc2c(c1)CCO2 (stereo not shown) [4-(2,3-Dihydrobenzofuran-5-yl)-1,1,1-trifluoro-4-methyl-2-quinolin-4-ylmethylpentan-2-ol] |
| potent activity | CC(C)(CC(O)(Cc1cc2cccc(F)c2[nH]1)C(F)(F)F)c1cccc2c1OCC2 (stereo not shown) [4-(2,3-Dihydrobenzofuran-7-yl)-1,1,1-trifluoro-2-(7-fluoro-1H-indol-2-ylmethyl)4-methylpentan-2-ol] |
| potent activity | CC(C)(CC(O)(Cc1cc2ccccc2[nH]1)C(F)(F)F)c1cc(C#N)cc2c1OCC2 (stereo not shown) [4-(2,3-dihydro-5-cyanobenzofuran-7-yl)-1,1,1-trifluoro-2-(1H-indol-2-ylmethyl)-4-methylpentan-2-ol] |
